Reference: the NIST ThermoML archive (doi:10.1016/j.jct.2015.05.002)
± gives the expanded uncertainty stated by the source.

Assay: mn = molality of the nth substance listed, in mol/kg
Conditions: 101.3 kPa, Liquid; for speed of sound: Frequency=3 MHz, Sing-around technique in a fixed-path interferometer; for mass density: Vibrating tube method

O=C[O-].[NH3+]CCCO [3-hydroxypropylammonium formate] + O
Conditions	mass density, m1 = 0.1 [kg/m3]	mass density, m1 = 0.21 [kg/m3]	mass density, m1 = 0.3 [kg/m3]	mass density, m1 = 0.42 [kg/m3]	speed of sound, m1 = 0.1 [m/s]	speed of sound, m1 = 0.21 [m/s]	speed of sound, m1 = 0.3 [m/s]	speed of sound, m1 = 0.42 [m/s]
293.15 K	999.816 ± 0.65	1001.61 ± 0.65	1003.08 ± 0.65	1005.09 ± 0.66	1489.6 ± 2.7	1496.4 ± 2.7	1502.6 ± 2.7	1510.7 ± 2.7
298.15 K	–	1000.35 ± 0.65	–	1003.64 ± 0.65	–	1508.3 ± 2.7	–	1520 ± 2.7
303.15 K	–	998.914 ± 0.65	–	1002.15 ± 0.65	–	1519.6 ± 2.7	–	1530.5 ± 2.7
308.15 K	–	997.259 ± 0.65	–	1000.45 ± 0.65	–	1529.4 ± 2.7	–	1540.3 ± 2.7
313.15 K	–	995.402 ± 0.64	–	998.562 ± 0.65	–	1538 ± 2.7	–	1547.9 ± 2.7
318.15 K	–	993.291 ± 0.64	–	996.504 ± 0.64	–	1545 ± 2.7	–	1554.3 ± 2.7
